{"source": "patent US20250283049A1", "about": "“AGENT FOR CULTURING ORGANOID IN ABSENCE OF EXTRACELLULAR MATRIX” (KEIO UNIVERSITY, priority 2022, published 2025)", "key": {"[1]": {"tested_on": "human small intestine-derived organoid", "experiment": "Culture of organoids in presence of Matrigel and LATS kinase inhibitor; cell number by ATP (CellTiter-Glo 3D)", "format": "cell-based", "conditions": "presence of Matrigel; 10 mM Lats-IN as printed; 7 days of culture; vs control without Lats-IN", "method": "A human small intestine-derived organoid and a human large intestine-derived organoid were cultured in the presence of an inhibitor of LATS1 kinase and LATS2 kinase, Lats-IN-1 (CAS No. 1424635-83-5, hereinafter sometimes referred to as “Lats-IN” and also referred to as “TRULI”), and their dynamics were observed.\nThe human small intestine-derived organoid and the human large intestine-derived organoid used were those established from tissues derived from patients with gastrointestinal tumors who provided informed consent, in accordance with an ethical research plan approved by the Ethics Committee of the Keio University School of Medicine.\nEach organoid was dissociated into single cells using TrypLE Express (Thermo Fisher Scientific Inc.) to obtain a cell suspension. […]\nThe cell proliferation was measured by measuring adenosine triphosphate (ATP) using a commercially available kit (product name “CellTiter-Glo 3D,” Promega Corporation).\nThe upper left panel of FIG. 2 is a photograph of a control (Ctrl) human small intestine-derived organoid cultured in the absence of Lats-IN, and the upper center panel of FIG. 2 is a photograph of a human small intestine-derived organoid cultured in the presence of Lats-IN. […] The vertical axis of the graph represents luminescence intensity (relative value) indicating the amount of ATP present."}, "[2]": {"tested_on": "human large intestine-derived organoids", "experiment": "Immunostaining for localization of YAP and Ki67", "format": "cell-based", "conditions": "10 μM Lats-IN; in both presence and absence of Matrigel; approximately 10% without Lats-IN", "method": "Human small intestine-derived organoids and human large intestine-derived organoids were cultured in the absence and presence of Matrigel (registered trademark) and in the absence and presence of a LATS kinase inhibitor (final concentration: 10 μM) in the same manner as in Experimental Example 2. Subsequently, immunostaining was performed to confirm the localization of YAP. In addition, Ki67, a marker for cell proliferation, was detected to confirm proliferating cells.\nThe leftmost column of FIG. 6 presents photographs showing the results of immunostaining of the human large intestine-derived organoids cultured in the presence of Matrigel (registered trademark) and in the absence of Lats-IN (Ctrl). […]\nFIG. 7 is a graph summarizing the results of FIGS. 5 and 6. As a result, in both the presence and absence of Matrigel (registered trademark), in the absence of Lats-IN, YAP was localized in the cytoplasm, and when the number of Ki67-positive cells, which indicates cell proliferation, was counted, the percentage of Ki67-positive cells was approximately 10% of the total cells. In contrast, in both the presence and absence of Matrigel (registered trademark), in the presence of Lats-IN, the number of cells in which YAP was localized in the nucleus was counted. […]"}}}
{"smiles": "O=C(N=c1sccn1Cc1ccccc1)c1c[nH]c2ncccc12", "note": "[Lats-IN]", "values": [{"measurement": "cell proliferation (cell number per well, ATP luminescence)", "setting": "[1]", "result": "significantly activated"}, {"measurement": "percentage of Ki67-positive cells", "setting": "[2]", "result": "≥ 50 % of the total cells"}]}
